According to ChEMBL document CHEMBL1629591, “Codetection of blaOXA-23-like gene (blaOXA-133) and blaOXA-58 in Acinetobacter radioresistens: report from the SENTRY antimicrobial surveillance program” (2009):
Values after ≈ are worked out from the molar mass of the structure shown.

Experiments:
Format in all cases: functional
[1] = tested on: Acinetobacter radioresistens; experiment: Antimicrobial activity against Acinetobacter radioresistens 251-39C expressing beta-lactamase OXA-133 by CLSI method
[2] = tested on: Acinetobacter radioresistens; experiment: Antimicrobial activity against plasmid encoded beta-lactamase OXA-58 deficient Acinetobacter radioresistens by CLSI method
[3] = tested on: Acinetobacter radioresistens; experiment: Antimicrobial activity against Acinetobacter radioresistens 251-39C expressing beta-lactamase OXA-133 by CLSI method in presence of beta-lactamase inhibitor clavulanate
[4] = tested on: Acinetobacter radioresistens; experiment: Antimicrobial activity against plasmid encoded beta-lactamase OXA-58 deficient Acinetobacter radioresistens by CLSI method in presence of beta-lactamase inhibitor clavulanate
[5] = tested on: Acinetobacter radioresistens; experiment: Antimicrobial activity against Acinetobacter radioresistens 251-39C expressing beta-lactamase OXA-133 by CLSI method in presence of beta-lactamase inhibitor Sulbactam
[6] = tested on: Acinetobacter radioresistens; experiment: Antimicrobial activity against plasmid encoded beta-lactamase OXA-58 deficient Acinetobacter radioresistens by CLSI method in presence of beta-lactamase inhibitor Sulbactam
[7] = tested on: Acinetobacter radioresistens; experiment: Antimicrobial activity against Acinetobacter radioresistens 251-39C expressing beta-lactamase OXA-133 by CLSI method in presence of beta-lactamase inhibitor Tazobactam
[8] = tested on: Acinetobacter radioresistens; experiment: Antimicrobial activity against plasmid encoded beta-lactamase OXA-58 deficient Acinetobacter radioresistens by CLSI method in presence of beta-lactamase inhibitor Tazobactam

Compound | MIC [1] [µg/mL] | MIC [2] [µg/mL] | further results
C[C@@H](O)[C@H]1C(=O)N2C(C(=O)O)=C(S[C@@H]3CN[C@H](C(=O)Nc4cccc(C(=O)O)c4)C3)[C@H](C)[C@H]12 | 4 (≈ 8.41 µM) | 1 (≈ 2.1 µM) | 
NCC[C@H](O)C(=O)N[C@@H]1C[C@H](N)[C@@H](O[C@H]2O[C@H](CN)[C@@H](O)[C@H](O)[C@H]2O)[C@H](O)[C@H]1O[C@H]1O[C@H](CO)[C@@H](O)[C@H](N)[C@H]1O [AMIKACIN] | 0.5 (≈ 0.854 µM) | 0.5 (≈ 0.854 µM) | 
CC1(C)S[C@@H]2[C@H](NC(=O)[C@H](N)c3ccc(O)cc3)C(=O)N2[C@H]1C(=O)O [AMOXICILLIN] |  |  | MIC [3]: 32 µg/mL; MIC [4]: 2 µg/mL
CC1(C)S[C@@H]2[C@H](NC(=O)[C@H](N)c3ccccc3)C(=O)N2[C@H]1C(=O)O [AMPICILLIN] |  |  | MIC [5]: 1 µg/mL; MIC [6]: 1 µg/mL
CO[C@@]1(NC(=O)Cc2cccs2)C(=O)N2C(C(=O)O)=C(COC(N)=O)CS[C@@H]21 [CEFOXITIN] | 8 (≈ 18.7 µM) | 8 (≈ 18.7 µM) | 
CC(C)(O/N=C(\C(=O)N[C@@H]1C(=O)N2C(C(=O)[O-])=C(C[n+]3ccccc3)CS[C@H]12)c1csc(N)n1)C(=O)O [CEFTAZIDIME] | 0.5 (≈ 0.915 µM) | 0.5 (≈ 0.915 µM) | 
CO/N=C(\C(=O)N[C@@H]1C(=O)N2C(C(=O)O)=C(CSc3nc(=O)c(O)nn3C)CS[C@H]12)c1csc(N)n1 [CEFTRIAXONE] | 4 (≈ 7.21 µM) | 2 (≈ 3.61 µM) | 
CCN1CCN(C(=O)N[C@@H](C(=O)N[C@@H]2C(=O)N3[C@@H]2SC(C)(C)[C@@H]3C(=O)O)c2ccccc2)C(=O)C1=O [PIPERACILLIN] |  |  | MIC [7]: 64 µg/mL; MIC [8]: 1 µg/mL
CC1(C)S[C@@H]2[C@H](NC(=O)[C@H](C(=O)O)c3ccsc3)C(=O)N2[C@H]1C(=O)O [TICARCILLIN] |  |  | MIC [3]: > 256 µg/mL; MIC [4]: 4 µg/mL

Now from value to compound, other results behind:

MIC [1] [µg/mL] | MIC [2] [µg/mL] | Compound | further results
8 (≈ 26.7 µM) | 0.25 (≈ 0.835 µM) | C[C@@H](O)[C@H]1C(=O)N2C(C(=O)O)=C(SCCNC=N)C[C@H]12 [IMIPENEM ANHYDROUS] | 
1 (≈ 2.61 µM) | 0.25 (≈ 0.652 µM) | C[C@@H](O)[C@H]1C(=O)N2C(C(=O)O)=C(S[C@@H]3CN[C@H](C(=O)N(C)C)C3)[C@H](C)[C@H]12 [MEROPENEM] | 
≤ 2 | ≤ 2 | CN(C)[C@@H]1C(O)=C(C(N)=O)C(=O)[C@@]2(O)C(O)=C3C(=O)c4c(O)cccc4[C@@](C)(O)[C@H]3C[C@@H]12 [TETRACYCLINE] | 
2 (≈ 4.28 µM) | 2 (≈ 4.28 µM) | NC[C@H]1O[C@H](O[C@H]2[C@H](O)[C@@H](O[C@H]3O[C@H](CO)[C@@H](O)[C@H](N)[C@H]3O)[C@H](N)C[C@@H]2N)[C@H](N)C[C@@H]1O [TOBRAMYCIN] | 
< 0.5 | < 0.5 | POLYMYXIN B | 
